Assay results reported in patent US20230322723A1, “COMPOUNDS FOR SUPPRESSING EGFR MUTANT CANCER AND PHARMACEUTICAL USE THEREOF” (J2H BIOTECH INC., priority 2020, published 2023).

Assays:
[1] = tested on: EGFR^del19+T790M+C797S; test: EGFR protein degradation test (Western blot) in Ba/F3 cells expressing mutant EGFR del19+T790M+C797S (DTC); assay type: cell-based; details: compounds at 0.1 μM and 1 μM, 24 hours, Western blot with EGFR antibody
Method: (§1) The ability of the compounds of the present invention to degrade the mutant EGFR protein was confirmed in Ba/F3 cells expressing normal EGFR, mutant EGFR^del19+T790M+C797S or mutant EGFR^L858R+T790M+C797S. A Western blot test using the EGFR antibody was performed.
(§2) Specifically, Ba/F3 cells expressing EGFR were cultured in RPMI 1640 (Gibco, NY, USA) containing 10% fetal bovine serum (FBS, Gibco, NY, USA). Cells expressing normal EGFR, mutant EGFR^del19+T790M+C797S or mutant EGFR^L858R+T790M+C797S were treated with the compounds of the present invention at concentrations of 0.1 μM and 1 μM, respectively, for 24 hours. After that, it was washed twice with phosphate buffered saline (PBS) and SDS-PAGE was performed with 30 μg of cell lysate. After the protein separated on the gel was transferred to a nitrocellulose membrane, the expression level of the EGFR protein was confirmed using an EGFR antibody (Santa Cruz biotechnology, Santacruz, CA, USA). EGFR bands separated by Western blotting were quantitatively analyzed with Fluo-S MultiImager (Bio-Rad, Hercules, CA, USA).

[2] = target: T1, EGFR^L858R+T790M+C797S (Homo sapiens, UniProt P00533, C797S/L858R/T790M); test: EGFR protein degradation test (Western blot) in Ba/F3 cells expressing mutant EGFR L858R+T790M+C797S (LTC); assay type: cell-based; details: compounds at 0.1 μM and 1 μM, 24 hours, Western blot with EGFR antibody
T1 construct: expressed in transfected cells; host or cells: Ba/F3
Method: as §1, §2

T1 sequence (P00533 25-1210 T790M/C797S/L858R): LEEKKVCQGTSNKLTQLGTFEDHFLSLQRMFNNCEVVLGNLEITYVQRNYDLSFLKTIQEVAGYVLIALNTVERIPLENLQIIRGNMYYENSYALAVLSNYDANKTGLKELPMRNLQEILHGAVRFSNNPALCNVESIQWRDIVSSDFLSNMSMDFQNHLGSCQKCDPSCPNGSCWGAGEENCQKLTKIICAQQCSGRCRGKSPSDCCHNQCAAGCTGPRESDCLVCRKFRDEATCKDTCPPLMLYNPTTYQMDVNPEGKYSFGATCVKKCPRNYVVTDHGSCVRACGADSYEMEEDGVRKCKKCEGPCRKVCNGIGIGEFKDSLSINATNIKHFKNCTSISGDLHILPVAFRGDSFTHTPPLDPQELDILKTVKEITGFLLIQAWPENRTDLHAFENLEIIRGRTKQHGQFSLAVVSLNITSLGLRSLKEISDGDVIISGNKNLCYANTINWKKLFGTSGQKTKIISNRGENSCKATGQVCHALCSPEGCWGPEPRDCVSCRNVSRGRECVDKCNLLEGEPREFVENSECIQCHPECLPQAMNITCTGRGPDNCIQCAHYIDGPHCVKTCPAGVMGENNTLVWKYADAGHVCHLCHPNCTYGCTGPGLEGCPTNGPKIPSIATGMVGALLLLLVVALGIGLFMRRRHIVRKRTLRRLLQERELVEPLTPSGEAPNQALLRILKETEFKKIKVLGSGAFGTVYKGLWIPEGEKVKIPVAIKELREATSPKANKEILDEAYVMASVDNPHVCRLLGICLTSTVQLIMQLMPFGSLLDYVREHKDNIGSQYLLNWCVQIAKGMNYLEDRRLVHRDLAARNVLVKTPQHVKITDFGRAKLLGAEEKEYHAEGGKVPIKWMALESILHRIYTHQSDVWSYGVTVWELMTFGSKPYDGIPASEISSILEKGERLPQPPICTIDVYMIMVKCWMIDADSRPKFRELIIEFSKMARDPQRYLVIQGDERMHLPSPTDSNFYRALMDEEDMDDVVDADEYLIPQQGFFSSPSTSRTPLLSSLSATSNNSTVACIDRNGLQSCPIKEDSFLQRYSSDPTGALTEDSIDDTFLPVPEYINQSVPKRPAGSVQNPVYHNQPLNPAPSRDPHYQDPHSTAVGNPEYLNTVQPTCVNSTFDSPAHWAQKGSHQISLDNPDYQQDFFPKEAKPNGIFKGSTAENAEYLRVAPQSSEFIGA

Row | SMILES | LTC (EGFR^L858R+T790M+C797S) protein degradation [2] | DTC (EGFR^del19+T790M+C797S) protein degradation [1]
1 | COc1cc(N2CCN(CCOCCOc3cccc4c3C(=O)N(C3CCC(=O)NC3=O)C4=O)CC2)ccc1Nc1ncc(Cl)c(Nc2ccccc2N(C)S(C)(=O)=O)n1 (stereo not shown) [Compound 12, N-(2-((5-chloro-2-((4-(4-(2-(2-((2-(2,6-dioxopiperidin-3-yl)-1,3-dioxoisoindolin-4-yl)oxy)ethoxy)ethyl)piperazin-1-yl)-2-methoxyphenyl)amino)pyrimidin-4-yl)amino)phenyl)N-methylmethanesulfonamide] | − (Protein degradation < 20%) | − (Protein degradation < 20%)
2 | COc1cc(N2CCN(CCCCOc3cccc4c3C(=O)N(C3CCC(=O)NC3=O)C4=O)CC2)ccc1Nc1ncc(Cl)c(Nc2ccccc2N(C)S(C)(=O)=O)n1 (stereo not shown) [Compound 14, N-(2-((5-chloro-2-((4-(4-(4-((2-(2,6-dioxopiperidin-3-yl)-1,3-dioxoisoindolin-4-yl)oxy)butyl)piperazin-1-yl)-2-methoxyphenyl)amino)pyrimidin-4-yl)amino)phenyl)-N-methylmethanesulfonamide] | + (Protein degradation 20~80%) | − (Protein degradation < 20%)
3 | Cc1ncsc1-c1ccc(CNC(=O)[C@H]2C[C@@H](O)CN2C(=O)[C@@H](NC(=O)CCCCN2CCN(C3CCN(c4ccc(Nc5ncc(Cl)c(Nc6ccccc6N(C)S(C)(=O)=O)n5)cc4F)CC3)CC2)C(C)(C)C)cc1 [Compound 18, (2R,4R)-1-((S)-2-(5-(4-(1-(4-((5-chloro-4-((2-(N-methylmethylsulfonamido)phenyl)amino)pyrimidin-2-yl)amino)-2-fluorophenyl)piperidin-4-yl)piperazin-1-yl)pentanamido)-3,3-dimethylbutanoyl)-4-hydroxy-N-(4-(4-methylthiazol-5-yl)benzyl)pyrrolidin-2-carboxamide] | − (Protein degradation < 20%) | − (Protein degradation < 20%)
4 | Cc1ncsc1-c1ccc(CNC(=O)[C@H]2C[C@@H](O)CN2C(=O)[C@@H](NC(=O)CN2CCN(C3CCN(c4ccc(Nc5ncc(Cl)c(Nc6ccccc6N(C)S(C)(=O)=O)n5)cc4F)CC3)CC2)C(C)(C)C)cc1 [Compound 19, (2R,4R)-1-((S)-2-(2-(4-(1-(4-((5-chloro-4-((2-(N-methylmethylsulfonamido)phenyl)amino)pyrimidin-2-yl)amino)-2-fluorophenyl)piperidin-4-yl)piperazin-1-yl)acetamido)-3,3-dimethylbutanoyl)-4-hydroxy-N-(4-(4-methylthiazol-5-yl)benzyl)pyrrolidin-2-carboxamide] | + (Protein degradation 20~80%) | ++ (Protein degradation > 80%)
5 | COc1cc(N2CCC(N3CCN(CC(=O)Nc4cccc5c4C(=O)N(C4CCC(=O)NC4=O)C5=O)CC3)CC2)ccc1Nc1ncc(Cl)c(Nc2ccccc2N(C)S(C)(=O)=O)n1 (stereo not shown) [Compound 21, 2-(4-(1-(4-((5-chloro-4-((2-(N-methylmethylsulfonamido)phenyl)amino)pyrimidin-2-yl)amino)-3-methoxyphenyl)piperidin-4-yl)piperazin-1-yl)-N-(2-(2,6-dioxopiperidin-3-yl)-1,3-dioxoisoindolin-4-yl)acetamide] | − (Protein degradation < 20%) | − (Protein degradation < 20%)
6 | COc1cc(N2CCN(CC3CCN(CC(=O)Nc4cccc5c4C(=O)N(C4CCC(=O)NC4=O)C5=O)CC3)CC2)ccc1Nc1ncc(Cl)c(Nc2ccccc2N(C)S(C)(=O)=O)n1 (stereo not shown) [Compound 25, 2-(4-((4-(4-((5-chloro-4-((2-(N-methylmethylsulfonamido)phenyl)amino)pyrimidin-2-yl)amino)-3-methoxyphenyl)piperazin-1-yl)methyl)piperidin-1-yl)-N-(2-(2,6-dioxopiperidin-3-yl)-1,3-dioxoisoindolin-4-yl)acetamide] | − (Protein degradation < 20%) | − (Protein degradation < 20%)
7 | COc1cc(N2CCC(CN3CCC(C(=O)N[C@H](C(=O)N4C[C@H](O)C[C@H]4C(=O)NCc4ccc(-c5scnc5C)cc4)C(C)(C)C)CC3)CC2)ccc1Nc1ncc(Cl)c(Nc2ccccc2N(C)S(C)(=O)=O)n1 [Compound 29, 1-((1-(4-((5-chloro-4-((2-(N-methylmethylsulfonamido)phenyl)amino)pyrimidin-2-yl)amino)-3-methoxyphenyl)piperidin-4-yl)methyl)-N—((S)-1-((2S,4R)-4-hydroxy-2-((4-(4-methylthiazol-5-yl)benzyl)carbamoyl)pyrrolidin-1-yl)-3,3-dimethyl-1-oxobutan-2-yl)piperidin-4-carboxamide] | − (Protein degradation < 20%) | − (Protein degradation < 20%)
8 | COc1cc(N2CCC3(CCN(CCC(=O)Nc4cccc5c4C(=O)N(C4CCC(=O)NC4=O)C5=O)CC3)CC2)ccc1Nc1ncc(Cl)c(Nc2ccccc2N(C)S(C)(=O)=O)n1 (stereo not shown) [Compound 30, 3-(9-(4-((5-chloro-4-((2-(N-methylmethylsulfonamido)phenyl)amino)pyrimidin-2-yl)amino)-3-methoxyphenyl)-3,9-diazaspiro[5,5]undecan-3-yl)-N-(2-(2,6-dioxopiperidin-3-yl)-1,3-dioxoisoindolin-4-yl)propanamide] | − (Protein degradation < 20%) | − (Protein degradation < 20%)
9 | COc1cc(N2CC3(CN(CCC(=O)Nc4cccc5c4C(=O)N(C4CCC(=O)NC4=O)C5=O)C3)C2)ccc1Nc1ncc(Cl)c(Nc2ccccc2N(C)S(C)(=O)=O)n1 (stereo not shown) [Compound 32, 3-(6-(4-((5-chloro-4-((2-(N-methylmethylsulfonamido)phenyl)amino)pyrimidin-2-yl)amino)-3-methoxyphenyl)-2,6-diazaspiro[3,3]heptan-2-yl)-N-(2-(2,6-dioxopiperidin-3-yl)-1,3-dioxoisoindolin-4-yl)propanamide] | − (Protein degradation < 20%) | − (Protein degradation < 20%)

The next lines start with results.

Row | LTC (EGFR^L858R+T790M+C797S) protein degradation [2] | SMILES | DTC (EGFR^del19+T790M+C797S) protein degradation [1]
10 | + (Protein degradation 20~80%) | COc1cc(N2CCC(N3CCN(CCOCCOc4cccc5c4C(=O)N(C4CCC(=O)NC4=O)C5=O)CC3)CC2)ccc1Nc1ncc(Cl)c(Nc2ccccc2N(C)S(C)(=O)=O)n1 (stereo not shown) [Compound 13, N-(2-((5-chloro-2-((4-(4-(4-(2-(2-((2-(2,6-dioxopiperidin-3-yl)-1,3-dioxoisoindolin-4-yl)oxy)ethoxy)ethyl)piperazin-1-yl)piperidin-1-yl)-2-methoxyphenyl)amino)pyrimidin-4-yl)amino)phenyl)N-methylmethanesulfonamide] | + (Protein degradation 20~80%)
11 | + (Protein degradation 20~80%) | COc1cc(N2CCC(N3CCN(CCCCOc4cccc5c4C(=O)N(C4CCC(=O)NC4=O)C5=O)CC3)CC2)ccc1Nc1ncc(Cl)c(Nc2ccccc2N(C)S(C)(=O)=O)n1 (stereo not shown) [Compound 15, N-(2-((5-chloro-2-((4-(4-(4-(4-((2-(2,6-dioxopiperidin-3-yl)-1,3-dioxoisoindolin-4-yl)oxy)butyl)piperazin-1-yl)piperidin-1-yl)-2-methoxyphenyl)amino)pyrimidin-4-yl)amino)phenyl)-N-methylmethanesulfonamide] | + (Protein degradation 20~80%)
12 | + (Protein degradation 20~80%) | COc1cc(N2CCN(CCOCCNc3cccc4c3C(=O)N(C3CCC(=O)NC3=O)C4=O)CC2)ccc1Nc1ncc(Cl)c(Nc2ccccc2N(C)S(C)(=O)=O)n1 (stereo not shown) [Compound 16] | − (Protein degradation < 20%)
13 | − (Protein degradation < 20%) | Cc1ncsc1-c1ccc(CNC(=O)[C@H]2C[C@@H](O)CN2C(=O)[C@@H](NC(=O)CCCCN2CCN(c3ccc(Nc4ncc(Cl)c(Nc5ccccc5N(C)S(C)(=O)=O)n4)cc3F)CC2)C(C)(C)C)cc1 [Compound 17, (2R,4R)-1-((S)-2-(5-(4-(4-((5-chloro-4-((2-(N-methylmethylsulfonamido)phenyl)amino)pyrimidin-2-yl)amino)-2-fluorophenyl)piperazin-1-yl)pentanamido)3,3-dimethylbutanoyl)4-hydroxy-N-(4-(4-methylthiazol-5-yl)benzyl)pyrrolidin-2-carboxamide] | + (Protein degradation 20~80%)
14 | − (Protein degradation < 20%) | COc1cc(N2CCC(CN3CCN(CC(=O)Nc4cccc5c4C(=O)N(C4CCC(=O)NC4=O)C5=O)CC3)CC2)ccc1Nc1ncc(Cl)c(Nc2ccccc2N(C)S(C)(=O)=O)n1 (stereo not shown) [Compound 23, 2-(4-((1-(4-((5-chloro-4-((2-(N-methylmethylsulfonamido)phenyl)amino)pyrimidin-2-yl)amino)-3-methoxyphenyl)piperidin-4-yl)methyl)piperazin-1-yl)-N-(2-(2,6-dioxopiperidin-3-yl)-1,3-dioxoisoindolin-4-yl)acetamide] | − (Protein degradation < 20%)
